ChEMBL document CHEMBL4033745, “3D-QSAR (CoMFA, CoMSIA), molecular docking and molecular dynamics simulations study of 6-aryl-5-cyano-pyrimidine derivatives to explore the structure requirements of LSD1 inhibitors” (Bioorg Med Chem Lett, 2017)

Target: Lysine-specific histone demethylase 1A (Homo sapiens, UniProt O60341)
Experiment: Inhibition of LSD1 (unknown origin)

SMILES | IC50 (read-out: IC50) [µM] | IC50 (read-out: pIC50 (converted)) [µM]
C#CCSc1nc(Nc2ccc(Cl)cc2)c(C#N)c(-c2ccccc2)n1 | 125 | –
C#CCSc1nc(Nc2ccc(F)cc2)c(C#N)c(-c2ccccc2)n1 | 125 | –
N#Cc1c(Cl)nc(SCc2cn(Cc3ccccc3Cl)nn2)nc1-c1ccc(Cl)cc1 | 125 | –
COc1cc(-c2nc(SCc3ccc(F)cc3)nc(NNC(N)=S)c2C#N)cc(OC)c1OC | 125 | –

The remaining molecules from weak to strong by IC50 (read-out: IC50), led by results:

IC50 (read-out: IC50) [µM] | IC50 (read-out: pIC50 (converted)) [µM] | SMILES
125 | – | C#CCSc1nc(Cl)c(C#N)c(-c2ccc([N+](=O)[O-])cc2)n1
125 | 123 | C#CCSc1nc(Nc2ccc([N+](=O)[O-])cc2)c(C#N)c(-c2ccccc2)n1
